Measured values taken from US20260062407A1, “PEROXIREDOXIN 3 INHIBITORS AND METHODS OF USE FOR TREATING CANCER” (WAKE FOREST UNIVERSITY HEALTH SCIENCES, priority 2022, published 2026).

What was measured:
[1] = test system: 578 cancer cells lines; conditions: of 578 cancer cell lines tested; cited from earlier work
[2] = test system: SK-OV-3 ovarian cancer cells; assay: Cellular Activity Assay (cytotoxicity, crystal violet); type: cell-based; conditions: Homo sapiens; SK-OV-3 cells, 48 hr treatment, 0.1-100 μM, crystal violet absorbance at 540 nm
From the text: To test the activity of compounds, two complimentary assays were used as described below. The Biochemical PRX3 Inhibition Assay tests the ability of each compound to crosslink PRX3 in a simple, in vitro system. In the Cellular Activity Assay, we are testing the ability of compounds to kill SK-OV-3 ovarian cancer cells.
The Cellular Activity Assay measures the EC50 of each compound in human SK-OV-3 ovarian cancer cells TS to be taken into the cell, transported to the mitochondria, and crosslink PRX3.
The cytotoxicity of compounds was measured as described in Nelson et al. (2021) Antioxidants (Basel) 10, 150; Cunniff et al. (2015) PloS one 10, e0127310; and Newick et al. (2012)PloS one 7, e39404. SK-OV-3 is an adherent, epithelial, adenocarcinoma cell line obtained from ATCC (ref #: HTB-77). SK-OV-3 cells are resistant to the commonly used chemotherapeutics, cis-platinum and doxorubicin. For this PRX3 crosslinking assay, SK-OV-3 cells were plated in a 96-well plate. After 24 h recovery, the cells were treated for 48 hr with multiple concentrations of each compound ranging from 0.1-100 μM.
Cells were washed with PBS to remove dead cells and the remaining live cells were fixed with 3.0% formaldehyde and stained with 0.1% crystal violet. The amount of crystal violet was determined by reading the absorbance at 540 nm (crystal violet dye dissolved in 100% methanol) using a plate reader. […]

[3] = Solubility Assay (HPLC); type: physicochemical; conditions: 20 mM HEPES, 100 mM NaCl, pH 7.5, 18-24 hours at ambient temperature
Procedure: A 20 mM stock solution was made for each compound in DMSO. To measure solubility, 0.03-0.05 mL of the stock was added to 0.27 mL 20 mM HEPES, 100 mM NaCl, pH 7.5. The solution was mixed and rotated 18-24 hours at ambient temperature. The next day, solutions were centrifuged for 10 min at 20,000×g at 24° C. to remove insoluble, solid material. Next, 100 μL of the supernatant containing the soluble compound was added to 900 μL DMSO and High Performance Liquid Chromatography was performed as described in Table 1 and either HPLC gradient 1 (Table 2) or HPLC gradient 2 (Table 3). For each analog, a 200 μM standard and a 20 μM standard were prepared and run in parallel (standards were dissolved completely in 100% DMSO). The amount of compound in the experimental sample was calculated by comparing the area under the curve for compound peak to the area for the closest standard and correcting for dilution.

[4] = test system: Enterococcus hirae (ATCC #10541); assay: Antimicrobial Activity Assay (MIC); type: cell-based
Procedure: The overnight growth was then diluted into growth media to make a single solution of E. hirae with a final optical density at 600 nm=0.02 AU. A 20 mM stock solution of Thiostrepton in DMSO was made and used to make multiple dilutions of TS in DMSO. Each TS dilution (0.1 mL) was then added to a test tube containing 10 mL of the diluted E. hirae and grown at 37° C. overnight while shaking at 180 rpm. The next morning, each tube was visually inspected to determine if the cells grew. Final concentrations tested were 0.120, 0.090, 0.075, 0.060, 0.045, 0.030, and 0.015 μM TS. […] Three replicates were made on three separate days (n=9). […] For TS analogs, the dilute E. hirae was treated with 20 μM final concentration of each analog (three replicates each). […] DMSO was used as a positive control (complete cell growth) and 20 μM thiostrepton was used as a negative control.

## C=C(NC(=O)C(=C)NC(=O)c1csc(C2=N[C@@H]3c4csc(n4)[C@H]4NC(=O)c5csc(n5)[C@H]([C@](C)(O)[C@@H](C)O)NC(=O)[C@H]5CSC(=N5)/C(=C/C)NC(=O)[C@H]([C@@H](C)O)NC(=O)c5csc(n5)[C@]3(CC2)NC(=O)[C@H](C)NC(=O)C(=C)NC(=O)[C@H](C)NC(=O)[C@H]([C@@H](C)CC)N[C@@H]2C=Cc3c([C@H](C)O)cc(nc3[C@H]2O)C(=O)O[C@@H]4C)n1)C(N)=O [Thiostrepton (TS), Thiostrepton]
[1]
  number of tumor cell lines with meaningful efficacy: 403

## C=C(NC(=O)c1csc(N2CCC(NC(=O)CC3CCOCC3)CC2)n1)C(=O)NC(=C)C(=O)OC [Compound 51, Methyl 2-(2-(2-(4-(2-(tetrahydro-2H-pyran-4-yl)acetamido)piperidin-1-yl)thiazole-4-carboxamido)acrylamido)acrylate]
[2]
  EC50: 10 to 25 µM
[3]
  Solubility: + (<0.1 mM)

## C=C(NC(=O)C(=C)NC(=O)c1csc(C2=N[C@@H]3c4csc(n4)[C@H]4NC(=O)c5csc(n5)[C@H]([C@](C)(O)[C@@H](C)O)NC(=O)[C@H]5CSC(=N5)/C(=C/C)NC(=O)[C@H]([C@@H](C)O)NC(=O)c5csc(n5)[C@]3(CC2)NC(=O)[C@H](C)NC(=O)C(=C)NC(=O)[C@H](C)NC(=O)[C@H]([C@@H](C)CC)N[C@@H]2C=Cc3c([C@H](C)O)cc(nc3[C@H]2O)C(=O)O[C@@H]4C)n1)C(N)=O [TS, Thiostrepton]
[4]; E. hirae, overnight at 37° C., n=9
  TS concentrations at which complete growth was observed: ≤ 0.030 µM
[4]; Enterococcus hirae, ATCC10541, read-out: TS concentrations at which no growth was observed (MIC)
  MIC: ≥ 0.045 µM
